IC50 data for 25 compounds are collected here from patent US10112929B2, “Lactams as inhibitors of rock” (BRISTOL-MYERS SQUIBB COMPANY, priority 2015, dated 2018).

Counter-ions that a name gives are not always drawn. Some results are limits rather than exact numbers.

What is called IC50 is the point on the concentration scale where inhibition reaches its midpoint.
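Note: rho kinase enzyme reaction halted with EDTA, phospho- and non-phospho peptide separated for read-out, kinase activity inhibition derived across a dose-response series, DMSO under 2%.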

In this experiment the target is ROCK2 (Homo sapiens (Human), UniProt O75116). Nature of the experiment: biochemical.
Sequence of ROCK2 (O75116 whole entry, species assumed): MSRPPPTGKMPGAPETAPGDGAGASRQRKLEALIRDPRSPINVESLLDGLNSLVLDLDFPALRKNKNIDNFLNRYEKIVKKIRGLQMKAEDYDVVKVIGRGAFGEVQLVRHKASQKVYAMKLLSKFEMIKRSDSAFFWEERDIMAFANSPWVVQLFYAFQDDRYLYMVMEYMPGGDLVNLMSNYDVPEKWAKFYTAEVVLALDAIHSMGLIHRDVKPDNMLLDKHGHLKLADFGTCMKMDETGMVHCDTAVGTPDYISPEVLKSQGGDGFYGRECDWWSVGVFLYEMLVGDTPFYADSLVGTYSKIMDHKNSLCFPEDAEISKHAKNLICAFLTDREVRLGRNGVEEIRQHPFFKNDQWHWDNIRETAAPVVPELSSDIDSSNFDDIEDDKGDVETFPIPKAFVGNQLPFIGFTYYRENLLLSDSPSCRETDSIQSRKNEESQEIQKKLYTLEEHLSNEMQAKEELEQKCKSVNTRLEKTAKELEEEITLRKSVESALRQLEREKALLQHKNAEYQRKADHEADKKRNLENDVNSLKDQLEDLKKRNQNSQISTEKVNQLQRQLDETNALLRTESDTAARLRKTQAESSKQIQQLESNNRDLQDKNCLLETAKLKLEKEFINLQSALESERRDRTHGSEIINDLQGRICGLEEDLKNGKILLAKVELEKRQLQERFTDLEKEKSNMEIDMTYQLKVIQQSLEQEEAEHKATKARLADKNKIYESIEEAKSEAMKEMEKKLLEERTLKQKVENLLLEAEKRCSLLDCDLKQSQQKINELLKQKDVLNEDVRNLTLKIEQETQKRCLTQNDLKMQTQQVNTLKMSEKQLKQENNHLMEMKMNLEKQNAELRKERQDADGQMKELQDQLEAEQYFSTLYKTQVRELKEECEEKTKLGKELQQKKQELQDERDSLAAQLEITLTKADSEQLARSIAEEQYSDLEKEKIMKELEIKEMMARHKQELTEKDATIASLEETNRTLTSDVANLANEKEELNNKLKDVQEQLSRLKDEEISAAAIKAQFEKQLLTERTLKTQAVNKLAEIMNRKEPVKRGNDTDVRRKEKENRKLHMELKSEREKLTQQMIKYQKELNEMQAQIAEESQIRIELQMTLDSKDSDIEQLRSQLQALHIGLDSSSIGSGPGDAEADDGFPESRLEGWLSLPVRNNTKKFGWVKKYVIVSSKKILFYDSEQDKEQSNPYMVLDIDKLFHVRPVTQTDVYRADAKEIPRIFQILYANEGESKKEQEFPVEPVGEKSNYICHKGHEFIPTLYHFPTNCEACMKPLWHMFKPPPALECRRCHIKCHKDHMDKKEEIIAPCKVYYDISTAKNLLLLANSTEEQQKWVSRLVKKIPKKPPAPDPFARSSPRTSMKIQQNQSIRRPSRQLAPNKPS
`Cc1cc(N2CCC(Nc3cccc(OCC4CC4)c3)C2=O)ncc1-c1cn[nH]c1` (single isomer, unassigned) [Example 206, 3-((3-(cyclopropylmethoxy)phenyl)amino)-1-(4-methyl-5-(1H-pyrazol-4-yl)pyridin-2-yl)pyrrolidin-2-one] yielded an IC50 of 0.1 to 2.2 µM.

`COc1cc(N2CCC(Nc3cccc(OC(F)(F)F)c3)C2=O)ccc1-c1cn[nH]c1` (stereo not shown) [Example 70, 1-(3-methoxy-4-(1H-pyrazol-4-yl)phenyl)-3-((3-(trifluoromethoxy)phenyl)amino)pyrrolidin-2-one] gave an IC50 of 0.1 to 2.2 µM.

`COc1cc(N2CCC(Nc3c(F)cccc3OC)C2=O)ccc1-c1cn[nH]c1` (single isomer, unassigned) [Example 135, 3-((2-fluoro-6-methoxyphenyl)amino)-1-(3-methoxy-4-(1H-pyrazol-4-yl)phenyl) pyrrolidin-2-one] displayed an IC50 of 0.01 to 0.1 µM.

Compound `COc1ccc(NC2CCN(c3ccc(-c4cn[nH]c4)cc3F)C2=O)cc1F` (single isomer, unassigned) [Example 344, 1-(2-fluoro-4-(1H-pyrazol-4-yl)phenyl)-3-((3-fluoro-4-methoxyphenyl)amino) pyrrolidin-2-one] yielded a half-inhibitory concentration (IC50) of 0.1 to 2.2 µM.

With `O=C1C(c2cccc(F)c2)CCN1c1ccc(-c2cn[nH]c2)cc1` (stereo not shown) [Example 102, 1-(4-(1H-pyrazol-4-yl)phenyl)-3-(3-fluorophenyl)pyrrolidin-2-one], the IC50 was in the range of 0.1 to 2.2 µM.

`COc1cccc(NC2CCN(c3ccc(-c4ccnc5[nH]ccc45)c(C)n3)C2=O)c1` (single isomer, unassigned) [Example 119, 3-((3-methoxyphenyl)amino)-1-(6-methyl-5-(1H-pyrrolo[2,3-b]pyridin-4-yl)pyridin-2-yl)pyrrolidin-2-one] gave an IC50 of 0.1 to 2.2 µM.

On to `O=C1C(Nc2cccc(F)c2)CCN1c1ccc(-c2cn[nH]c2)c(F)c1` (single isomer, unassigned) [Example 48, 1-(3-fluoro-4-(1H-pyrazol-4-yl)phenyl)-3-((3-fluorophenyl)amino)pyrrolidin-2-one], for which the IC50 is 0.01 to 0.1 µM.

As for `O=C1C(CCc2ccccc2Cl)CCN1c1ccc(-c2cn[nH]c2)cc1` (stereo not shown) [Example 100, 1-(4-(1H-pyrazol-4-yl)phenyl)-3-(2-chlorophenethyl)pyrrolidin-2-one], the IC50 fell in the range of 0.1 to 2.2 µM.

In the case of `COc1nc(N2CCC(N3CC[C@H](O)C3)C2=O)ccc1-c1cn[nH]c1` (mixture of isomers) [Example 295, (3S)-3-hydroxy-1′-(6-methoxy-5-(1H-pyrazol-4-yl)pyridin-2-yl)-[l,3′-bipyrrolidin]-2′-one], the IC50 was 0.1 to 2.2 µM.

For `O=C1[C@H](Nc2cccc(OCC3CC3)c2)CCN1c1ccc(-c2cn[nH]c2)cc1` (single isomer, unassigned) [Example 235, 1-(4-(1H-pyrazol-4-yl)phenyl)-3-((3-(cyclopropylmethoxy)phenyl)amino) pyrrolidin-2-one], the IC50 is below 0.01 µM.

As to `N#Cc1ccnc(NC2CCN(c3ccc(-c4cn[nH]c4)cc3)C2=O)c1` (stereo not shown) [Example 116, 2-((1-(4-(1H-Pyrazol-4-yl)phenyl)-2-oxopyrrolidin-3-yl)amino)isonicotinonitrile], the IC50 is 0.01 to 0.1 µM.

In the case of `O=C1C(c2ccccc2Cl)CCN1c1ccc(-c2cn[nH]c2)cc1` (stereo not shown) [Example 105, 1-(4-(1H-pyrazol-4-yl)phenyl)-3-(2-chlorophenyl)pyrrolidin-2-one], the IC50 is 0.01 to 0.1 µM.

For the compound `COCc1cc(N2CCC(Nc3ccc(F)c(OC)c3)C2=O)ccc1-c1cn[nH]c1` (single isomer, unassigned) [Example 181, 3-((4-fluoro-3-methoxyphenyl)amino)-1-(3-(methoxymethyl)-4-(1H-pyrazol-4-yl)phenyl)pyrrolidin-2-one], the IC50 was 0.1 to 2.2 µM.

On to `COc1cc(F)cc(NC2CCN(c3ccc(-c4cn[nH]c4)cc3F)C2=O)c1` (single isomer, unassigned) [Example 338, 1-(2-fluoro-4-(1H-pyrazol-4-yl)phenyl)-3-((3-fluoro-5-methoxyphenyl)amino) pyrrolidin-2-one], for which the IC50 was 0.01 to 0.1 µM.

Compound `COc1nc(N2CCC(Nc3cccc(OCC4CC4)c3)C2=O)ccc1-c1cn[nH]c1` (single isomer, unassigned) [Example 214, 3-((3-(cyclopropylmethoxy)phenyl)amino)-1-(6-methoxy-5-(1H-pyrazol-4-yl)pyridin-2-yl)pyrrolidin-2-one] displayed a 50% inhibitory concentration (IC50) below 0.01 µM.

In the case of `COc1nc(N2CCC(N3CCC(C(F)(F)F)CC3)C2=O)ccc1-c1cn[nH]c1` (racemic) [Example 285, 1-(6-methoxy-5-(1H-pyrazol-4-yl)pyridin-2-yl)-3-(4-(trifluoromethyl)piperidin-1-yl)pyrrolidin-2-one hydrochloride], the IC50 lay in the range of 0.1 to 2.2 µM.

For the compound `O=C1C(Nc2cncnc2)CCN1c1ccc(-c2cn[nH]c2)cc1` (racemic) [Example 227, 1-(4-(1H-pyrazol-4-yl)phenyl)-3-(pyrimidin-5-ylamino)pyrrolidin-2-one], the IC50 is 0.01 to 0.1 µM.

In turn, `COc1nc(N2CCC(Nc3cccc(-c4cnco4)c3)C2=O)ccc1-c1cn[nH]c1` (racemic) [Example 262, 1-(6-methoxy-5-(1H-pyrazol-4-yl)pyridin-2-yl)-3-((3-(oxazol-5-yl)phenyl)amino) pyrrolidin-2-one] showed an IC50 of 0.01 to 0.1 µM.

Take `COc1cc(NC2CCN(c3ccc(-c4cn[nH]c4)c(C#N)c3)C2=O)ccc1F` (single isomer, unassigned) [Example 379, 5-(3-((4-fluoro-3-methoxyphenyl)amino)-2-oxopyrrolidin-1-yl)-2-(1H-pyrazol-4-yl)benzonitrile]: the IC50 is 0.1 to 2.2 µM.

As for `COc1cc(N2CCC(Nc3cccc(NS(C)(=O)=O)c3)C2=O)ccc1-c1cn[nH]c1` (stereo not shown) [Example 73, N-(3-((1-(3-methoxy-4-(1H-pyrazol-4-yl)phenyl)-2-oxopyrrolidin-3-yl)amino)phenyl)methanesulfonamide], the IC50 lay in the range of 0.01 to 0.1 µM.

`COc1c(F)cccc1NC1CCN(c2ccc(-c3cn[nH]c3)c(OC(F)F)c2)C1=O` (single isomer, unassigned) [Example 32, 1-(3-(difluoromethoxy)-4-(1H-pyrazol-4-yl)phenyl)-3-((3-fluoro-2-methoxyphenyl)amino)pyrrolidin-2-one]: the IC50 is 0.1 to 2.2 µM.

On to `COc1cc(F)cc(NC2CCN(c3ccc(-c4cn[nH]c4)c(OC)n3)C2=O)c1` (single isomer, unassigned) [Example 198, 3-((3-fluoro-5-methoxyphenyl)amino)-1-(6-methoxy-5-(1H-pyrazol-4-yl)pyridin-2 yl)pyrrolidin-2-one], for which the IC50 is below 0.01 µM.

`COc1cc(F)cc(NC2CCN(c3ccc(-c4cn[nH]c4)c(C(F)F)c3)C2=O)c1` (single isomer, unassigned) [Example 178, 1-(3-(difluoromethyl)-4-(1H-pyrazol-4-yl)phenyl)-3-((3-fluoro-5-methoxyphenyl)amino)pyrrolidin-2-one] showed an IC50 of 0.01 to 0.1 µM.

Regarding `CCOc1cc(N2CCC(Nc3cccc(OC)c3)C2=O)ccc1-c1cn[nH]c1` (single isomer, unassigned) [Example 35, 1-(3-ethoxy-4-(1H-pyrazol-4-yl)phenyl)-3-((3-methoxyphenyl)amino)pyrrolidin-2-one], the IC50 was 0.01 to 0.1 µM.

`COc1nc(N2CCC(Nc3ccc4c(c3)OCO4)C2=O)ccc1-c1cn[nH]c1` (racemic) [Example 255, 3-(benzo[d][1,3]dioxol-5-ylamino)-1-(6-methoxy-5-(1H-pyrazol-4-yl)pyridin-2-yl)pyrrolidin-2-one] returned an IC50 below 0.01 µM.
